# Columns and labels:
# [1] = test system: monoclonal antibody MV-001; assay: In vitro inhibition assay (ELISA), MV-001 binding to original epitope; parameters: species or system C57/Bl6 mice; settings: OD at 10 μg peptide compared to original peptide
# Experimental: 2. In vitro inhibition assay (ELISA)
# Different amounts of peptides (concentrations ranging from 10 μg to 0.08 μg; serial dilutions), derived from Phage Display were incubated with the monoclonal antibody that was used for the screening procedure. Peptides diminishing subsequent binding of the antibody to the original epitope coated on ELISA plates were considered as inhibiting in this assay.
# [2] = test system: monoclonal antibody MV-001; assay: In vitro binding assay (ELISA), parental antibody MV-001; parameters: species or system C57/Bl6 mice; settings: peptide-BSA on ELISA plate; OD halfmax, dilution factor 1:X of parental AB MV-001
# Experimental: 1. In vitro binding assay (ELISA)
# Peptides derived from Phage Display as well as variants thereof were coupled to BSA and bound to ELISA plates (1 μM; as indicated in the respective figures) and subsequently incubated with the monoclonal antibody that was used for the screening procedure to analyse binding capacity of identified peptides.
# [3] = test system: full length and/or truncated and modified forms of Aβ; assay: In vivo characterisation of mimotopes: detection of Aβ/truncated/modified forms; parameters: species or system C57/bl6 mice; key: +: All peptides listed in Table 4 mount specific immune reactions against full length and/or truncated and modified forms of Aβ or fragments thereof; settings: MV-001 derived mimotopes; mimotope vaccination
# Experimental: Inhibiting as well as non-inhibiting peptides were coupled to KLH and injected into mice (wildtype C57/Bl6 mice; subcutaneous injection into the flank) together with an appropriate adjuvant (aluminium hydroxide). Animals were vaccinated 3-6 times in biweekly intervals and sera were taken biweekly as well. Titers to injected peptides, as well as to an irrelevant peptide were determined with every serum. Furthermore, titers against the recombinant human Aβ protein, and against original peptides were determined respectively. In general sera were analysed by reaction against peptides coupled to Bovine Serum Albumin (BSA) and recombinant full length proteins which were immobilised on ELISA plates. Titers were determined using anti mouse IgG specific antibodies. For detailed results see FIGS. 6, 7 and 8 respectively.
# Female C57/bl6 mice, 5-6 mice per group, were subcutaneously immunized with 30 μg peptide coupled to KLH. Control groups were administered original epitope-KLH conjugates respectively. As adjuvant alum was used (always 1 mg per mouse). […] The in vitro ELISA assay to determine the antibody titer was performed with sera of single mice after each vaccination in a two week interval (see FIGS. 6 and 7 respectively). The wells of the ELISA plate were coated with mimotope-BSA conjugate and an irrelevant peptide-BSA conjugate (negative control). The positive control was performed by reaction of the parental antibody with the respective mimotope-BSA conjugate. The detection was performed with anti-mouse IgG. Additionally, recombinant proteins were immobilised on ELISA plates and sera reacted accordingly. FIGS. 6 to 8 show representative examples for assays used to characterise mimotopes in vivo.
# [4] = target: monoclonal antibody MV-004; assay: ELISA, peptide-BSA coated, MV-004; settings: for Binding Capacity: scale: code
# [5] = target: monoclonal antibody MV-004; assay: inhibition ELISA; competitor: coated original epitope p4372; settings: for Inhibition Capacity: scale: code
# [6] = target: monoclonal antibody MV-001; assay: ELISA, peptide-BSA coated, MV-001; settings: for Binding Capacity: scale: code
# [7] = target: monoclonal antibody MV-001; assay: inhibition ELISA; competitor: coated original epitope p4371; settings: for Inhibition Capacity: scale: code
molecule,measurement,setting,value
SAFRHHC [p4387],Inhibition Capacity,[1],1 (Weaker than original epitope (OD of 10 μg peptide below 3 times of original peptide))
NWFPHPC [p4392],Binding Capacity,[2],1 (weak binding :<4000)
same,Inhibition Capacity,[1],1 (Weaker than original epitope (OD of 10 μg peptide below 3 times of original peptide))
TSVFRHC [p4383],Binding Capacity,[2],3 (strong binding :>20000)
same,Inhibition Capacity,[1],1 (Weaker than original epitope (OD of 10 μg peptide below 3 times of original peptide))
same,Detection of Aβ/truncated/modified forms,[3],+
SQFRHYC [p4385],Inhibition Capacity,[1],1 (Weaker than original epitope (OD of 10 μg peptide below 3 times of original peptide))
same,Detection of Aβ/truncated/modified forms,[3],+
QFKHDLC [p4391],Inhibition Capacity,[1],1 (Weaker than original epitope (OD of 10 μg peptide below 3 times of original peptide))
ADHDFRHC [p4740],Binding Capacity,[2],3 (strong binding :>20000)
same,Inhibition Capacity,[1],1 (Weaker than original epitope (OD of 10 μg peptide below 3 times of original peptide))
same,Detection of Aβ/truncated/modified forms,[3],+
ELFKHHLC [p4714],Binding Capacity,[2],3 (strong binding :>20000)
same,Detection of Aβ/truncated/modified forms,[3],+
YEFRHAQC [p4748],Binding Capacity,[2],3 (strong binding :>20000)
same,Detection of Aβ/truncated/modified forms,[3],+
LPFRHGC [p4388],Inhibition Capacity,[1],1 (Weaker than original epitope (OD of 10 μg peptide below 3 times of original peptide))
CHEFRH [p4802],Binding Capacity,[2],3 (strong binding :>20000)
same,Inhibition Capacity,[1],2 (strong inhibition (as original epitope; OD of 10 μg peptide below 2 times of original peptide))
EEFKYSC [p4393],Inhibition Capacity,[1],1 (Weaker than original epitope (OD of 10 μg peptide below 3 times of original peptide))
CSEFKH [p4800],Binding Capacity,[2],3 (strong binding :>20000)
same,Inhibition Capacity,[1],2 (strong inhibition (as original epitope; OD of 10 μg peptide below 2 times of original peptide))
HEFRHC [p4803],Binding Capacity,[2],3 (strong binding :>20000)
same,Inhibition Capacity,[1],2 (strong inhibition (as original epitope; OD of 10 μg peptide below 2 times of original peptide))
TSFRHGC [p4382],Inhibition Capacity,[1],1 (Weaker than original epitope (OD of 10 μg peptide below 3 times of original peptide))
DEHPFRHC [p4730],Binding Capacity,[2],3 (strong binding :>20000)
same,Inhibition Capacity,[1],1 (Weaker than original epitope (OD of 10 μg peptide below 3 times of original peptide))
same,Detection of Aβ/truncated/modified forms,[3],+
SPNQFRHC [p4707],Binding Capacity,[2],3 (strong binding :>20000)
same,Inhibition Capacity,[1],1 (Weaker than original epitope (OD of 10 μg peptide below 3 times of original peptide))
same,Detection of Aβ/truncated/modified forms,[3],+
QDFRHYC [p4380],Inhibition Capacity,[1],1 (Weaker than original epitope (OD of 10 μg peptide below 3 times of original peptide))
TPFRHTC [p4384],Inhibition Capacity,[1],1 (Weaker than original epitope (OD of 10 μg peptide below 3 times of original peptide))
TEFRHKAC [p4753],Binding Capacity,[2],3 (strong binding :>20000)
same,Inhibition Capacity,[1],2 (strong inhibition (as original epitope; OD of 10 μg peptide below 2 times of original peptide))
same,Detection of Aβ/truncated/modified forms,[3],+
EELRHSVC [p4746],Binding Capacity,[2],3 (strong binding :>20000)
same,Inhibition Capacity,[1],1 (Weaker than original epitope (OD of 10 μg peptide below 3 times of original peptide))
THTDFRHC [p4725],Binding Capacity,[2],3 (strong binding :>20000)
same,Inhibition Capacity,[1],1 (Weaker than original epitope (OD of 10 μg peptide below 3 times of original peptide))
same,Detection of Aβ/truncated/modified forms,[3],+
LMFRHNC [p4386],Binding Capacity,[2],3 (strong binding :>20000)
same,Inhibition Capacity,[1],1 (Weaker than original epitope (OD of 10 μg peptide below 3 times of original peptide))
same,Detection of Aβ/truncated/modified forms,[3],+
DGLLFKHC [p4741],Binding Capacity,[2],3 (strong binding :>20000)
same,Inhibition Capacity,[1],1 (Weaker than original epitope (OD of 10 μg peptide below 3 times of original peptide))
SHFRHGC [p4389],Inhibition Capacity,[1],1 (Weaker than original epitope (OD of 10 μg peptide below 3 times of original peptide))
SEFKHC [p4801],Binding Capacity,[2],3 (strong binding :>20000)
same,Inhibition Capacity,[1],1 (Weaker than original epitope (OD of 10 μg peptide below 3 times of original peptide))
QSEFKHWC [p4738],Binding Capacity,[2],3 (strong binding :>20000)
same,Inhibition Capacity,[1],1 (Weaker than original epitope (OD of 10 μg peptide below 3 times of original peptide))
same,Detection of Aβ/truncated/modified forms,[3],+
EVWHRHQC [p4417],Binding Capacity,[4],2
same,Inhibition Capacity (code (weaker than original epitope)),[5],1
ERWHEKHC [p4418],Binding Capacity,[4],3
same,Inhibition Capacity,[5],2
EVWHRLQC [p4419],Binding Capacity,[4],3
same,Inhibition Capacity,[5],2
ELWHRYPC [p4420],Binding Capacity,[4],2
same,Inhibition Capacity (code (weaker than original epitope)),[5],1
ELWHRAFC [p4665],Binding Capacity,[4],2
same,Inhibition Capacity,[5],2
ELWHRAC [p4786],"Binding Capacity (code (weak binding, OD halfmax 1:<24000))",[4],1
same,Inhibition Capacity (code (weaker than original epitope)),[5],1
EVWHRGC [p4788],"Binding Capacity (code (weak binding, OD halfmax 1:<24000))",[4],1
same,Inhibition Capacity (code (weaker than original epitope)),[5],1
EVWHRHC [p4789],"Binding Capacity (code (weak binding, OD halfmax 1:<24000))",[4],1
same,Inhibition Capacity (code (weaker than original epitope)),[5],1
NWFPHPC [p4392],"Binding Capacity (code (weak binding, OD halfmax 1:<4000))",[6],1
same,Inhibition Capacity (code (weaker than original epitope)),[7],1
EEFKYSC [p4393],Binding Capacity,[6],2
same,Inhibition Capacity (code (weaker than original epitope)),[7],1
SPNQFRHC [p4707],Binding Capacity,[6],3
same,Inhibition Capacity (code (weaker than original epitope)),[7],1
TLHEFRHC [p4715],Binding Capacity,[6],3
same,Inhibition Capacity,[7],2
THTDFRHC [p4725],Binding Capacity,[6],3
same,Inhibition Capacity (code (weaker than original epitope)),[7],1
DEHPFRHC [p4730],Binding Capacity,[6],3
same,Inhibition Capacity (code (weaker than original epitope)),[7],1
QSEFKHWC [p4738],Binding Capacity,[6],3
same,Inhibition Capacity (code (weaker than original epitope)),[7],1
ADHDFRHC [p4740],Binding Capacity,[6],3
same,Inhibition Capacity (code (weaker than original epitope)),[7],1
DGLLFKHC [p4741],Binding Capacity,[6],3
same,Inhibition Capacity (code (weaker than original epitope)),[7],1
EELRHSVC [p4746],Binding Capacity,[6],3
same,Inhibition Capacity (code (weaker than original epitope)),[7],1
TEFRHKAC [p4753],Binding Capacity,[6],3
same,Inhibition Capacity,[7],2
CSEFKH [p4800],Binding Capacity,[6],3
same,Inhibition Capacity,[7],2
SEFKHC [p4801],Binding Capacity,[6],3
same,Inhibition Capacity (code (weaker than original epitope)),[7],1

# Source: US8613931B2, “Compounds for treating beta-amyloidoses” (Affiris AG, priority 2008, dated 2013)
